Test results taken from patent publication US20260167637A1, “NLRP3 INFLAMMASOME INHIBITOR AND USE THEREOF” (TransThera Sciences (Nanjing), Inc., priority 2022, published 2026).

Columns and labels:
[1] = Stability in canine liver microsomes; assay type: in vitro ADME; settings: canine liver microsomes 0.5 mg protein/mL, 1 μM test substance, β-NADPH 1 mM, 37° C.; for microsomal CLint at 1 μM / half-life at 1 μM: dog; for half-life at 1 μM: read-out: Canine t1/2
Description: (§1) Experimental Example 2: Evaluation of Stability of Compounds Disclosed Herein in Liver Microsomes
(§2) Composition of experimental incubation system:
(§3) An appropriate amount of the compound was precisely weighed out and dissolved in DMSO to prepare a 10.0 mM stock solution. The 10.0 mM stock solution was diluted with DMSO to 1.0 mM, and then diluted with phosphate buffer (containing 3 mM MgCl2) to prepare a 10 μM test substance working solution for later use (DMSO content in the reaction system: 0.1%).
(§4) An appropriate amount of β-NADPH was precisely weighed out and then prepared into a 5 mM β-NADPH working solution using phosphate buffer (containing 3 mM MgCl2) for later use.
(§5) (1) The liver microsomes (20 mg protein/mL) were taken out from a −80° C. freezer and pre-incubated on a 37° C. water bath thermostatic oscillator for 3 min to thaw for later use.
(§6) (2) A mixed solution of the incubation system (without β-NADPH) was prepared according to “composition of experimental incubation system” described above, and pre-incubated on a 37° C. water bath thermostatic oscillator for 2 min.
(§7) (3) Control group (without β-NADPH): 10 μL of phosphate buffer (containing 3 mM MgCl2) and 40 μL of the mixed solution of the incubation system in step (2) were taken and mixed, and the mixture was vortexed for 30 s and mixed well, resulting in a total reaction volume of 50 μL; the sample was duplicated. The mixture was placed on a 37° C. water bath thermostatic oscillator for incubation, and timing was started, with termination time points set at 0 min and 60 min.
(§8) (4) Sample group: 10 μL of the β-NADPH solution (5 mM) and 40 μL of the mixed solution in step (2) were taken and mixed, resulting in a total reaction volume of 50 μL; the mixture was vortexed for 30 s and mixed well; the sample was duplicated. The mixture was placed on a 37° C. water bath thermostatic oscillator for incubation, and timing was started, with termination time points set at 0 min, 5 min, 10 min, 20 min, 30 min, and 60 min.
(§9) (5) The mixture was vortexed for 5 min and then centrifuged at 4000 rpm for 10 min.
(§10) (6) 50 μL of the supernatant was taken and added to 150 μL of water, and the resulting mixture was vortexed and mixed well before LC/MS/MS analysis.
(§11) The half-life (t1/2) and clearance rate (CL) were calculated using the following first-order kinetic formula
(§12) Notes: k denotes the slope of the logarithm of the remaining amount of a compound vs. time, and Vd denotes apparent volume of distribution.

[2] = Stability in rat liver microsomes; assay type: in vitro ADME; settings: rat liver microsomes 0.5 mg protein/mL, 1 μM test substance, β-NADPH 1 mM, 37° C.; for half-life at 1 μM: read-out: Rat t1/2
Description: as §1, §2, §3, §4, §5, §6, §7, §8, §9, §10, §11, §12

[3] = Pharmacokinetic study in male SD rats; assay type: in vivo; settings: rat, plasma; for clearance: read-out: Cl—obs iv (clearance rate) (converted); for Vd: read-out: Vss iv (distribution volume); for bioavailability: po 5 mg/kg vs iv 1 mg/kg, read-out: F% (absolute bioavailability); for Tmax: median, read-out: Tmax po (time to peak plasma concentration); for Cmax: read-out: Cmax po (peak concentration)
Description: Experimental Example 4: Pharmacokinetic Study of Compounds in Male SD Rats
(§13) The compounds were prepared into solutions using a mixed vehicle composed of 5% dimethyl sulfoxide, 20% (30% solutol), and 75% normal saline. The compound solutions were intragastrically administered to male SD rats at a dose of 5.0 mg/kg, and the blood collection time points were: 15 min, 30 min, 1 h, 2 h, 4 h, 6 h, 8 h, 10 h, and 24 h.
as §13, with “intravenously injected into” for “intragastrically administered to”, “1.0” for “5.0”, “were: 5 min,” for “were:”, “4h,” for “4 h,”, “8h,” for “8 h,”
Intravenous catheterization was performed on the animals the day before the administration. After the administration, blood samples of about 300 μL were collected from the jugular vein and placed into anticoagulation tubes containing EDTA-K2. The blood samples were centrifuged at 5000 rpm at 4° C. for 10 min to give plasma samples. The plasma samples were prepared within 30 min after blood collection. The plasma samples were stored in a −80° C. freezer before testing.

[4] = Pharmacokinetic study in mice; assay type: in vivo, female C57BL/6J mice; settings: female, C57BL/6J, mouse, plasma; for clearance: read-out: Cl—obs iv (clearance rate) (converted); for Vd: read-out: Vss iv (distribution volume); for bioavailability: po 10 mg/kg vs iv 5 mg/kg, read-out: F% (absolute bioavailability); for Tmax: median, read-out: Tmax po (time to peak plasma concentration); for Cmax: read-out: Cmax po (peak concentration)
In short: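 Female C57BL/6J mice received compound in 5% DMSO/20% (30% solutol)/75% saline at 10 mg/kg intragastrically (sampling 15 min–24 h) or 5 mg/kg intravenously (sampling 5 min–24 h). Plasma was acetonitrile-precipitated with tolbutamide internal standard and analysed by LC-MS/MS. PK parameters were derived by NCA, with Tmax as a median.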

[5] = iv 1 mg/kg, read-out: AUClast iv (0-24 h)
[6] = iv 1 mg/kg, read-out: tz1/2 iv (terminal half-life) (converted)
[7] = po 5 mg/kg, read-out: AUClast po (0-24 h)
[8] = po 5 mg/kg, read-out: tz1/2 po (terminal half-life) (converted)
[9] = iv 5 mg/kg, read-out: AUClast iv (0-24 h)
[10] = iv 5 mg/kg, read-out: tz1/2 iv (terminal half-life) (converted)
[11] = po 10 mg/kg, read-out: AUClast po (0-24 h)
[12] = po 10 mg/kg, read-out: tz1/2 po (terminal half-life) (converted)

| microsomal CLint at 1 μM [1] | half-life at 1 μM [1] | microsomal CLint at 1 μM [2] | half-life at 1 μM [2] | AUC(0-t) [3, 5] | clearance ([3]; iv 1 mg/kg) | Vd ([3]; iv 1 mg/kg) | half-life [3, 6] | bioavailability [3] | Tmax ([3]; po 5 mg/kg) | AUC(0-t) [3, 7] | Cmax ([3]; po 5 mg/kg) | half-life [3, 8] | AUC(0-t) [4, 9] | clearance ([4]; iv 5 mg/kg) | Vd ([4]; iv 5 mg/kg) | half-life [4, 10] | bioavailability [4] | Tmax ([4]; po 10 mg/kg) | AUC(0-t) [4, 11] | SMILES | other results |
| --- | --- | --- | --- | --- | --- | --- | --- | --- | --- | --- | --- | --- | --- | --- | --- | --- | --- | --- | --- | --- | --- |
| 5 µL/min/mg | 4.62 h | 3 µL/min/mg | 7.7 h |  |  |  |  |  |  |  |  |  |  |  |  |  |  |  |  | C#Cc1ccc(-c2nnc(N[C@@H]3CCCN(C)C3)cc2C(C)C)c(O)c1 [Compound 81, (R)-5-ethynyl-2-(4-isopropyl-6-((1-methylpiperidin-3-yl)amino)pyridazin-3-yl)phenol] |  |
| 8.4 µL/min/mg | 2.75 h | 8.2 µL/min/mg | 2.82 h |  |  |  |  |  |  |  |  |  |  |  |  |  |  |  |  | C#Cc1ccc(-c2nnc(N[C@@H]3CCCN(C)C3)c(C#N)c2C)c(O)c1 [Compound 103, (R)-6-(4-ethynyl-2-hydroxyphenyl)-5-methyl-3-((1-methylpiperidin-3-yl)amino)pyridazine-4-carbonitrile] |  |
|  |  |  |  | 1860 ng·h/mL | 7.95 mL/min/kg | 2.15 L/kg | 3.24 h | 81% | 0.5 h | 8480 ng·h/mL | 1260 ng/mL | 3.54 h | 3230 ng·h/mL | 25.7 mL/min/kg | 1.65 L/kg | 0.92 h | 85.7% | 0.5 h | 5530 ng·h/mL | C#Cc1ccc(-c2nnc(N[C@@H]3CCCN(C)C3)c(=O)n2C)c(O)c1 [Compound 23, (R)-3-(4-ethynyl-2-hydoxyphenyl)-4-methyl-6-((1-methylpiperidin-3-yl)amino)-1,2,4-triazin-5(4H)-one] | Canine t1/2 [1]: →∞; Cmax ([4]; po 10 mg/kg): 3030 ng/mL; half-life [4, 12]: 0.983 h; Rat t1/2 [2]: →∞ |
| 1.4 µL/min/mg | 16.5 h | 6.8 µL/min/mg | 3.4 h | 1920 ng·h/mL | 8.38 mL/min/kg | 3.28 L/kg | 5.63 h | 71.5% | 4 h | 6840 ng·h/mL | 629 ng/mL | 5.19 h | 11400 ng·h/mL | 7.27 mL/min/kg | 1.47 L/kg | 3.57 h | 83.7% | 1 h | 19100 ng·h/mL | C#Cc1ccc(-c2nnc(N[C@@H]3CCCN(CCO)C3)cc2C2CC2)c(O)c1 [Compound 45, (R)-2-(4-Cyclopropyl-6-((1-(2-hydroxyethyl)piperidin-3-yl)amino)pyridazin-3-yl)-5-ethynylphenol] | Cmax ([4]; po 10 mg/kg): 4130 ng/mL; half-life [4, 12]: 3.18 h |
